The record followed here is US9493464B2, “Wee1 degradation inhibitors” (The Scripps Research Institute, priority 2012, dated 2016).

In one assay the test system is K328M-Wee1-luciferase. Description: Wee1-luciferase assay (stabilization of K328M-Wee1-luciferase). It counts as cell-based. The conditions noted are these: at 250 nM, reported relative to SR-1277 = 100%. From the text: Steady-state level of K328M-Wee1-Luciferase (K328M-Wee1-Luc) was divided by Luciferase level (Luc) and plotted.
Similar assays have previously been described; PubChem AID 1807.
Regarding `FC(F)(F)c1cccc2[nH]c(CNc3nc(N4CCOCC4)nc4c3ncn4-c3ccsc3)nc12` [SR-1272], the “% Inhibition, Wee1 Degradation” value is reported as 10.8%.
As for `FC(F)(F)c1ccc2[nH]c(CNc3nc(N4CCOCC4)nc4c3ncn4-c3ccsc3)nc2c1` [SR-1273], the “% Inhibition, Wee1 Degradation” value came to 46.3%.
Same read-out and setting: as for `Clc1ccc2[nH]c(CNc3nc(N4CCOCC4)nc4c3ncn4-c3ccsc3)nc2c1` [SR-1274], the figure is 101.2%; as for `Fc1ccc2[nH]c(CNc3nc(N4CCOCC4)nc4c3ncn4-c3ccsc3)nc2c1` [SR-1275], 81.4%.
Still for that read-out and setting: to `N#Cc1ccc2[nH]c(CNc3nc(N4CCOCC4)nc4c3ncn4-c3ccsc3)nc2c1` [SR-1276] belongs 85.9%; to `O=[N+]([O-])c1ccc2[nH]c(CNc3nc(N4CCOCC4)nc4c3ncn4-c3ccsc3)nc2c1` [SR-1278], 18.7%; to `COc1ccc2[nH]c(CNc3nc(N4CCOCC4)nc4c3ncn4-c3ccsc3)nc2c1` [SR-1279], 79.5%.
Same read-out and setting: as for `c1ccc2cc3[nH]c(CNc4nc(N5CCOCC5)nc5c4ncn5-c4ccsc4)nc3cc2c1` [SR-1280], the figure is 48.3%; as for `CCOC(=O)c1cccc2[nH]c(CNc3nc(N4CCOCC4)nc4c3ncn4-c3ccsc3)nc12` [SR-1282], 97.3%.
In the case of `CC(C)n1cnc2c(NCc3nc4c([N+](=O)[O-])cccc4[nH]3)nc(N3CCOCC3)nc21` [SR-1284], the “% Inhibition, Wee1 Degradation” value came to 111.2%.
Still for that read-out and setting: as for `FC(F)(F)c1cc(Br)c2nc(CNc3nc(N4CCOCC4)nc4c3ncn4-c3ccsc3)[nH]c2c1` [SR-1285], the figure is 13.4%; as for `c1ccc2[nH]c(CNc3nc(N4CCNCC4)nc4c3ncn4-c3ccsc3)nc2c1` [SR-1292], 14.5%.

The same assay, now with this note: read-out: Wee1 Stabilization.
`Clc1ccc2[nH]c(CNc3nc(N4CCOCC4)nc4c3ncn4-c3ccsc3)nc2c1` [SR-1274]: the EC50 is 164 nM.
As to `CCOC(=O)c1cccc2[nH]c(CNc3nc(N4CCOCC4)nc4c3ncn4-c3ccsc3)nc12` [SR-1282], the EC50 was found to be 207 nM.
Still for that read-out and setting: as for `CC(C)n1cnc2c(NCc3nc4c([N+](=O)[O-])cccc4[nH]3)nc(N3CCOCC3)nc21` [SR-1284], the figure is 201 nM.

The target in the next assay is T1, FLT3 (Homo sapiens, UniProt P36888).
T1 construct: Reaction Biology Corporation (contract assay)
T1 sequence (P36888 27-993): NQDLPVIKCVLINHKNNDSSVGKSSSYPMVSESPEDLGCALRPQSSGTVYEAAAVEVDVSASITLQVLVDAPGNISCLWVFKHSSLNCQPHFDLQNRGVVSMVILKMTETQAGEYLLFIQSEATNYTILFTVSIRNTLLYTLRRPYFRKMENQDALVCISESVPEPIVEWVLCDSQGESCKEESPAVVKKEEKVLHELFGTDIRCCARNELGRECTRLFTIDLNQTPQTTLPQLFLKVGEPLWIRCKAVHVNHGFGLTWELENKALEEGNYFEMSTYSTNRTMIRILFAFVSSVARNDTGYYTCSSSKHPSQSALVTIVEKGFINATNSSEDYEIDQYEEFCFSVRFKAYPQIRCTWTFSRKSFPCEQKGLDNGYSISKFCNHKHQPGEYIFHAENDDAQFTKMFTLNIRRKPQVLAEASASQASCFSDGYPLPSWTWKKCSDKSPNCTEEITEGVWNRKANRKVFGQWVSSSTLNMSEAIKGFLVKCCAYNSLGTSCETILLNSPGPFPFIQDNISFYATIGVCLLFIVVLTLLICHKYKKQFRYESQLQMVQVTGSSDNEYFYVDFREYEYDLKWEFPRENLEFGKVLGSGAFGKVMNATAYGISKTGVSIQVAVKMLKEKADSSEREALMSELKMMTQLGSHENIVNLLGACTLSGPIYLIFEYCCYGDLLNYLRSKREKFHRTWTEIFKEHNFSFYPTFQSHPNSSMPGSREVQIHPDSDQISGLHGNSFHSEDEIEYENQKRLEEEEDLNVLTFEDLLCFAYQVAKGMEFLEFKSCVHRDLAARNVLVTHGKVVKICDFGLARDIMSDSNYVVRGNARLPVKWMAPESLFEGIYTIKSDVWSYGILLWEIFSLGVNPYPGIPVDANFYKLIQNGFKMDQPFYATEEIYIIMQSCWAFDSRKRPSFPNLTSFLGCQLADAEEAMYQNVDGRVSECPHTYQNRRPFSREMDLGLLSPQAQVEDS
Description: In vitro kinase assay, FLT3 (Reaction Biology Corporation). The assay is classed as biochemical. The following applies: determined by Reaction Biology Corporation; read-out: IC50 FLT3. As to the method:
(§1) Compounds were tested in 10-dose IC50 mode with 3-fold serial dilution starting at 50 μM. […] Reactions were carried out at 10 μM ATP. Average and standard deviations of reactions carried out in triplicate are shown.
(§2) In vitro kinase assay to detect CK1 or FLT3 activity: CK1 and FLT3 assays as well as complete kinase profile of 296 kinases was performed by Reaction Biology Corporation. For FLT3 20 μM final Abltide was used, sequence: [[…]]. For CK1 (all isoforms) 20 μM CK1 tide was used, sequence: [KRRRAL[pS]VASLPGL] in a standard kinase assay with ^32P-ATP and purified kinase. Incorporation of ^32P-ATP into the peptide was measured after a filter-binding assay. In-house CK1d inhibition assays were performed using a standard homogenous time-resolved fluorescence resonance energy transfer (TR-FRET) format in 50 mM Hepes, pH 7.0, 2.5 mM MgCl2, 0.1 mg/ml bovine serum albumin, 1 mM DL-dithiothreitol, 0.01% Triton X-100 (all from Sigma-Aldrich). Briefly, the CK1δ substrate (DEKTDDE, containing CK1 consensus sequence; 4 μL of a 500 nM stock solution) is labeled with a small Ulight acceptor dye (PerkinElmer). In the presence of 10 μL of 10 nM CK1δ, the Ulight peptide is phosphorylated at a single amino acid that is specifically recognized by a europium chelate (Eu)-labeled phosphospecific antibody. Assays were performed in the presence of 2 μL of compound at different (measured) concentrations, and reactions were stopped by adding 10 μL of 4 nM Eu-anti-p-Topo-IIa (PerkinElmer) in Lance Detection Buffer (Perkin Elmer). Upon excitation of the Eu-labeled antibody, energy is transferred to the acceptor dye resulting in the emission of detected light at 665 nm.
`FC(F)(F)c1cccc2[nH]c(CNc3nc(N4CCOCC4)nc4c3ncn4-c3ccsc3)nc12` [SR-1272]: the half-inhibitory concentration (IC50) (as a rule, the concentration that inhibits the measured activity by half) was found to be 262 nM.
Still for that read-out and setting: to `FC(F)(F)c1ccc2[nH]c(CNc3nc(N4CCOCC4)nc4c3ncn4-c3ccsc3)nc2c1` [SR-1273] belongs 509 nM; to `Clc1ccc2[nH]c(CNc3nc(N4CCOCC4)nc4c3ncn4-c3ccsc3)nc2c1` [SR-1274], 301 nM.
Same read-out and setting: to `Fc1ccc2[nH]c(CNc3nc(N4CCOCC4)nc4c3ncn4-c3ccsc3)nc2c1` [SR-1275] belongs 79 nM.
The same measure, in the same setting: as for `N#Cc1ccc2[nH]c(CNc3nc(N4CCOCC4)nc4c3ncn4-c3ccsc3)nc2c1` [SR-1276], the figure is 62 nM; as for `O=[N+]([O-])c1ccc2[nH]c(CNc3nc(N4CCOCC4)nc4c3ncn4-c3ccsc3)nc2c1` [SR-1278], 240 nM; as for `COc1ccc2[nH]c(CNc3nc(N4CCOCC4)nc4c3ncn4-c3ccsc3)nc2c1` [SR-1279], 14 nM.
Turning to `c1ccc2cc3[nH]c(CNc4nc(N5CCOCC5)nc5c4ncn5-c4ccsc4)nc3cc2c1` [SR-1280], the IC50 is 975 nM.
Still for that read-out and setting: to `CCOC(=O)c1cccc2[nH]c(CNc3nc(N4CCOCC4)nc4c3ncn4-c3ccsc3)nc12` [SR-1282] belongs 548 nM; to `CC(C)n1cnc2c(NCc3nc4c([N+](=O)[O-])cccc4[nH]3)nc(N3CCOCC3)nc21` [SR-1284], 28000 nM.
The same measure, in the same setting: as for `FC(F)(F)c1cc(Br)c2nc(CNc3nc(N4CCOCC4)nc4c3ncn4-c3ccsc3)[nH]c2c1` [SR-1285], the figure is 4740 nM.
The same measure, in the same setting: to `c1ccc2[nH]c(CNc3nc(N4CCNCC4)nc4c3ncn4-c3ccsc3)nc2c1` [SR-1292] belongs 16 nM.

In the next assay the target is CK1δ (Homo sapiens, UniProt P48730). Description: In vitro kinase assay, CK1d, 32P-ATP filter binding (Reaction Biology Corporation). The assay is classed as biochemical. The conditions noted are these: footnote a: determined by Reaction Biology Corporation; read-out: IC50 CK1d. As to the method: as §1, §2
Chain of CK1δ (P48730 whole entry): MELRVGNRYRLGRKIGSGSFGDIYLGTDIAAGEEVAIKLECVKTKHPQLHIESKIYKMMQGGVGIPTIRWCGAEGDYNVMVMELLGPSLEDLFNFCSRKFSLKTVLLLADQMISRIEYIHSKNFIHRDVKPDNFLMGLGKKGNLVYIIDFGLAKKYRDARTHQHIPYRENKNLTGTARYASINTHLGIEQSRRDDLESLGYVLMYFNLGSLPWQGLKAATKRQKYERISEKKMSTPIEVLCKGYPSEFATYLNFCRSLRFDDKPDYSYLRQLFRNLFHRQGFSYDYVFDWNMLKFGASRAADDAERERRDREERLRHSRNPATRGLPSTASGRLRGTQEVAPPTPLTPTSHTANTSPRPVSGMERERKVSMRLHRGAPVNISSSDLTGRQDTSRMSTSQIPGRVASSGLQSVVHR
In the case of `FC(F)(F)c1cccc2[nH]c(CNc3nc(N4CCOCC4)nc4c3ncn4-c3ccsc3)nc12` [SR-1272], the IC50 was determined as 128 nM.
Consider `FC(F)(F)c1ccc2[nH]c(CNc3nc(N4CCOCC4)nc4c3ncn4-c3ccsc3)nc2c1` [SR-1273], for which the IC50 came out at 13 nM.
As for `Clc1ccc2[nH]c(CNc3nc(N4CCOCC4)nc4c3ncn4-c3ccsc3)nc2c1` [SR-1274], the IC50 was 105 nM.
On the same count and under the same terms, as for `Fc1ccc2[nH]c(CNc3nc(N4CCOCC4)nc4c3ncn4-c3ccsc3)nc2c1` [SR-1275], the figure is 50 nM; as for `N#Cc1ccc2[nH]c(CNc3nc(N4CCOCC4)nc4c3ncn4-c3ccsc3)nc2c1` [SR-1276], 11 nM; as for `O=[N+]([O-])c1ccc2[nH]c(CNc3nc(N4CCOCC4)nc4c3ncn4-c3ccsc3)nc2c1` [SR-1278], 21 nM.
The same measure, in the same setting: to `COc1ccc2[nH]c(CNc3nc(N4CCOCC4)nc4c3ncn4-c3ccsc3)nc2c1` [SR-1279] belongs 17 nM; to `c1ccc2cc3[nH]c(CNc4nc(N5CCOCC5)nc5c4ncn5-c4ccsc4)nc3cc2c1` [SR-1280], 129 nM.
Regarding `CCOC(=O)c1cccc2[nH]c(CNc3nc(N4CCOCC4)nc4c3ncn4-c3ccsc3)nc12` [SR-1282], the IC50 is 361 nM.
Still for that read-out and setting: as for `CC(C)n1cnc2c(NCc3nc4c([N+](=O)[O-])cccc4[nH]3)nc(N3CCOCC3)nc21` [SR-1284], the figure is 815 nM.
Consider `FC(F)(F)c1cc(Br)c2nc(CNc3nc(N4CCOCC4)nc4c3ncn4-c3ccsc3)[nH]c2c1` [SR-1285], for which the concentration for half-maximal inhibition (IC50) came out at 522 nM.
For the compound `c1ccc2[nH]c(CNc3nc(N4CCNCC4)nc4c3ncn4-c3ccsc3)nc2c1` [SR-1292], the IC50 was determined as 3 nM.
